Assay results taken from patent publication US10240124B2, “Cell culture substrate comprising a laminin and a cadherin” (BioLamina AB, priority 2011, dated 2019).

How the values were obtained:
[1] = tested on: SCID mouse; assay: Teratoma formation; assay type: in vivo; conditions: HS181 13 passages, H1 12 passages in O3; H1 7 passages in TeSR2
Procedure: Teratoma formation experiments were performed by implantation of approximately 10^6 cells beneath the testicular capsule of a young (7-week-old) severe combined immunodeficiency (SCID) mouse. Three animals per each cell line were used. Teratoma growth was observed by weekly palpation, and the mice were sacrificed eight weeks after the implantation. The teratomas were fixed, and sections were stained with hematoxylin and eosin (HE) or with hematoxylin, eosin and PAS (HE-PAS). […] All animal experiments were performed at the infection-free animal facility of the Karolinska University Hospital in accordance with ethical committee approval.

[2] = tested on: hES cells; assay: Expression of pluripotency and differentiation markers (RT-PCR, FACS, immunofluorescence); assay type: cell-based, human; conditions: compared with cells on Matrigel passed as small clumps
Procedure: For immunofluorescence studies, ES cells were cultured and fixed in 8-well slide chambers (BD Biosciences) or 96-well plate wells by 4% paraformaldehyde, permeabilized by 0.1% Triton-X and blocked by 10% bovine fetal serum (GIBCO Invitrogen Corporation) in phosphate-saline buffer (PBS) containing 0.1% Tween-20 (Sigma-Aldrich, St. Louis, http://www.sigmaaldrich.com) for one hour. Incubation with primary antibody was performed for 1.5 hours at room temperature. Incubation with secondary antibody and 4,6-diamidino-2-phenylindole (DAPI, Molecular Probes) was performed for 40 minutes. Between incubations, the specimens were washed with 0.1% Tween-20 in PBS buffer three to five times. Specimens were preserved in a fluorescence mounting medium (Dako, Glostrup, Denmark, http://www.dako.com), and observed under a fluorescence microscope (Leica, Heerbrugg, Switzerland, http://www.leica.com).
Total RNA was isolated using Absolutely RNA Microprep Kit (Stratagene, La Jolla Calif., www.stratagene.com) according to the manufacturer's instructions. cDNA was synthesized using 0.2 μg of total RNA in 20 μl reaction mixture, containing oligo(dT)12-18 primers and Superscript II reverse transcriptase (GIBCO Invitrogen Corporation), according to the manufacturer's instructions. […] All data was analyzed with 7300 System SDS Software v 1.4. […]

[3] = tested on: ES cells; assay: Embryoid body formation; assay type: cell-based, human; conditions: same three cultures as teratoma test
Procedure: ES cells from LN-521 coated cell culture dishes were exposed to TrypLE™Select for one minute at 37° C., 5% CO2, washes two times with a medium, broken into large pieces and cultured in suspension in low adhesion plates. The medium used for this was Knockout DMEM (GIBCO Invitrogen Corporation) supplemented with 2 mM L-glutamine, 20% fetal calf serum (GIBCO Invitrogen Corporation), 0.1 mM β-mercaptoethanol (GIBCO Invitrogen Corporation) and 1% non-essential amino acids (GIBCO Invitrogen Corporation). After 1-2 weeks in suspension, the embryoid bodies were transferred onto gelatin coated tissue cell culture 96-well plates (Sarstedt), cultured for 1-2 weeks, then fixed, stained with antibodies against markers of all three embryonic germ line layers (smooth muscle actin, MAP-2 and α-fetoprotein) and analyzed as described above for immunofluorescence.

LN-521: protein formed by joining α5, β2 and γ1 laminin chains; human recombinant, produced in HEK293 cells
histology of teratomas formed in SCID mice [1]: development of tissues containing all three germ lineages
expression levels of pluripotency markers Oct4, Nanog and SSEA4 [2]: stable expression levels
differentiation in vitro, embryoid bodies expressing markers of mesoderm, ectoderm and endoderm [3]: retained the competence to form embryoid bodies
